The target of experiment [1] is Histone acetyltransferase KAT2A (Homo sapiens, UniProt Q92830). The experiment in a line: Inhibition of recombinant human KAT2A using biotinylated histone H3 (1 to 21 amino acid residues) as substrate at 50 uM preincubated for 10 mins followed by acetyl-CoA addition measured after 10 mins by time resolved fluorescence assay.
For experiment [2], the system named is HL-60. The experiment in a line: Cytotoxicity against human HL60 cells assessed as growth inhibition at 20 uM after 72 hrs by MTS assay. Type of experiment: functional. Particulars: HL-60, 72 h, read-out: GI.
The test system of experiment [3] is LNCaP. The experiment in a line: Cytotoxicity against human LNCAP cells assessed as growth inhibition at 40 uM after 72 hrs by MTS assay. Type of experiment: functional. On the technique in general: Tetrazolium assays rely on reduction of a dye to a coloured formazan, in cell work by metabolically active cells.
Experiment [4] deals with T1, CREB-binding protein (Homo sapiens, UniProt Q92793). Description: Inhibition of recombinant human CBP using biotinylated histone H3 (1 to 21 amino acid residues) as substrate preincubated for 10 mins followed by acetyl-CoA addition measured after 10 mins by time resolved fluorescence assay.
For experiment [5], the target named is Histone acetyltransferase p300 (Homo sapiens, UniProt Q09472). Description: Inhibition of recombinant human p300 using biotinylated histone H3 (1 to 21 amino acid residues) as substrate at 50 uM preincubated for 10 mins followed by acetyl-CoA addition measured after 10 mins by time resolved fluorescence assay.
Chain of Histone acetyltransferase p300 (Q09472 whole entry, the tested form may be a part): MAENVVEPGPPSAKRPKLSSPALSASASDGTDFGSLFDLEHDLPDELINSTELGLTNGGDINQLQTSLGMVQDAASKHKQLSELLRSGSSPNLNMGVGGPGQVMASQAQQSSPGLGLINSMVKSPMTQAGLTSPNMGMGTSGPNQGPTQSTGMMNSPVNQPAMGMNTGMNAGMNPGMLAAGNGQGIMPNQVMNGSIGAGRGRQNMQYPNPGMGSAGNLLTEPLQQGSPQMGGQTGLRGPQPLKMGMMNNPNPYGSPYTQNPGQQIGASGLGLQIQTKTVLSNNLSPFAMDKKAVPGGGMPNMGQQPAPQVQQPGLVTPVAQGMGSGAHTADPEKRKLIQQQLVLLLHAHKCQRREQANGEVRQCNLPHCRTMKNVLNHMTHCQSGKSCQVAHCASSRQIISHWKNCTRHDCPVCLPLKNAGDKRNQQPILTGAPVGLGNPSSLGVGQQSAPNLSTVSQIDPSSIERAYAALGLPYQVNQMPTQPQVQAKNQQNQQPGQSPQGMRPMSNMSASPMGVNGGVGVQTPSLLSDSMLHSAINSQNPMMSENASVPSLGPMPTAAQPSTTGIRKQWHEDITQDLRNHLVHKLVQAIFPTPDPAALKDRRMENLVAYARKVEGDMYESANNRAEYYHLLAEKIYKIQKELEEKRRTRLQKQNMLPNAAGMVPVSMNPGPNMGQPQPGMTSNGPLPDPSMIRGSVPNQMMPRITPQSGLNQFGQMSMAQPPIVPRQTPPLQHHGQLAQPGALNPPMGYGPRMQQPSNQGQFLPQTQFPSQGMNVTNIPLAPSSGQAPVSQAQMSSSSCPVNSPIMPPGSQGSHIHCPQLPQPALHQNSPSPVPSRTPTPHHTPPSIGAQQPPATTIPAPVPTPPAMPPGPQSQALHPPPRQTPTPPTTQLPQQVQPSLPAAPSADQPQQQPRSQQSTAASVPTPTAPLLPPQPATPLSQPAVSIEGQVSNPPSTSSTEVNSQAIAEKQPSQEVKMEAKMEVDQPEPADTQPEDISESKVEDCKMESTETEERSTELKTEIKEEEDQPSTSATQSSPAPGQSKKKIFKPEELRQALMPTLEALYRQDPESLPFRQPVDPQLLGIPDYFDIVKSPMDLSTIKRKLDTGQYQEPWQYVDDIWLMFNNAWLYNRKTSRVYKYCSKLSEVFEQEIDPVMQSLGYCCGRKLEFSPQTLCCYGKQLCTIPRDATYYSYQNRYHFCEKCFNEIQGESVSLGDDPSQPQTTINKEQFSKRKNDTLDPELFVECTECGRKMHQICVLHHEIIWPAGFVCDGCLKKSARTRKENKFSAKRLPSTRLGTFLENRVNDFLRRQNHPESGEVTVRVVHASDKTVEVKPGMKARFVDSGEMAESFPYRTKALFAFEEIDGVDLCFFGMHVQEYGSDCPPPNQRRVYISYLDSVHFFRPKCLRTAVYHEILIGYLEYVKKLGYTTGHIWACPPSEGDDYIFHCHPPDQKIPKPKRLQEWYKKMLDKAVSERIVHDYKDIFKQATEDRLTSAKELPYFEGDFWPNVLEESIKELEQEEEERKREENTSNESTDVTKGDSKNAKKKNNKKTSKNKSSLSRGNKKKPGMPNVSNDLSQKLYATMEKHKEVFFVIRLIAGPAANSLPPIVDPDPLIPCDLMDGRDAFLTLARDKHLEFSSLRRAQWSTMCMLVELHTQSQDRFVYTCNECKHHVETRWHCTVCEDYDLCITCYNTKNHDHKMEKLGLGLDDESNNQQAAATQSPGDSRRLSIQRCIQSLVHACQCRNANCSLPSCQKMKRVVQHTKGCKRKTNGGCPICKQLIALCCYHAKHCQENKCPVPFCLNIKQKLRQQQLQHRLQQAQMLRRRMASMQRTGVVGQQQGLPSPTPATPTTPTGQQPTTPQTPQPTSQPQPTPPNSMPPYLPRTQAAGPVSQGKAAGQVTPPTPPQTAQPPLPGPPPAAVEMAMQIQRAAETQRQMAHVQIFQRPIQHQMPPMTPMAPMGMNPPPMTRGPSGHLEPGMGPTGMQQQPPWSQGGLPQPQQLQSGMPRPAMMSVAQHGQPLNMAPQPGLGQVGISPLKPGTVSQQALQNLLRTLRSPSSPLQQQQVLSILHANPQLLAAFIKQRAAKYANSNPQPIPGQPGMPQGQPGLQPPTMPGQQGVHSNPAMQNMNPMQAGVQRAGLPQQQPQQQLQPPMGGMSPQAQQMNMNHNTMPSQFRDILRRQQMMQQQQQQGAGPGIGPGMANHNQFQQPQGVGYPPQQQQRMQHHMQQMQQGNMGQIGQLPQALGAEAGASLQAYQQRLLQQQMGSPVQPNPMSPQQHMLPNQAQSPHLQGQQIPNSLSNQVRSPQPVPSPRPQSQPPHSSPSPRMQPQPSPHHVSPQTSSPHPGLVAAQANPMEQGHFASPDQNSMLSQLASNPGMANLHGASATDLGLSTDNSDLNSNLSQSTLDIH
Experiment [6] has as its target T1, CREB-binding protein. Description: Inhibition of recombinant human CBP using biotinylated histone H3 (1 to 21 amino acid residues) as substrate at 50 uM preincubated for 10 mins followed by acetyl-CoA addition measured after 10 mins by time resolved fluorescence assay.

pIC50: −log10 of the molar value. Activity calls are given as the source filed them. The rule behind the calls is not given here.

Chain of Histone acetyltransferase KAT2A (Q92830 2-837 limits assumed): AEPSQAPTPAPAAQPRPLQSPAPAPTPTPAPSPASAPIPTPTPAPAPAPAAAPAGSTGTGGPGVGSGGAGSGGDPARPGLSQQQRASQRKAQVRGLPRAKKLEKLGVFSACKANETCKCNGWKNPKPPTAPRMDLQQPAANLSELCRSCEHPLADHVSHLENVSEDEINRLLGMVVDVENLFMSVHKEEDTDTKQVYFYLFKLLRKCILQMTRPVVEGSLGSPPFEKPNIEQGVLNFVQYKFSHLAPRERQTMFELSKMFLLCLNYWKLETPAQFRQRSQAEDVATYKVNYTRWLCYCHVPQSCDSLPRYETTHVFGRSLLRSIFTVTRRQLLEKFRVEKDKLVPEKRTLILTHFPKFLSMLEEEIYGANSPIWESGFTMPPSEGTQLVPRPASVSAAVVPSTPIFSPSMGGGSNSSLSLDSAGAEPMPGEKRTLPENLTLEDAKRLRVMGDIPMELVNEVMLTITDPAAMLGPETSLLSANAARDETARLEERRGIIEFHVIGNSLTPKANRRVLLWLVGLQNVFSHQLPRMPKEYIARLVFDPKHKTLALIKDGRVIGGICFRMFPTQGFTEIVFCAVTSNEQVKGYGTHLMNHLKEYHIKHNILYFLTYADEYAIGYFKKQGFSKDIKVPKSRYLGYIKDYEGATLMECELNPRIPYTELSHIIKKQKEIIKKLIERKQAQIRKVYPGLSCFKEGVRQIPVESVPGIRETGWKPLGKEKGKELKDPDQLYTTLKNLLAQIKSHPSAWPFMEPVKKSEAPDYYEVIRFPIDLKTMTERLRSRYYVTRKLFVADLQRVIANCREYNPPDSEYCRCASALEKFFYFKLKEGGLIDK

Take `O=C(Cn1sc2cc(F)ccc2c1=O)Nc1nc(-c2ccccc2)cs1`: the results for the inhibition in experiment [1], in experiment [5] and in experiment [6] were 21%, 18% and 99%, respectively. In addition, the inhibition of growth at 20 µM in experiment [2] came to 14.5%. Besides, the “growth inhibition (GI)” value in experiment [3] was “inactive”. For the same molecule, the pIC50 – broadly, −log10 of the IC50, conventionally taken in molar units – in experiment [4] was 5.84.

These data come from ChEMBL document CHEMBL3621044, “Pyrido- and benzisothiazolones as inhibitors of histone acetyltransferases (HATs)” (Medchemcomm, 2014).
